Laboratory results published in patent publication US20210045385A1, “PYRIDAZINONE-SUBSTITUTED KETOXIMES AS HERBICIDES” (FMC Corporation, priority 2018, published 2021).

Experiments:
Format in all cases: in vivo
[1] = test system: Italian ryegrass (Lolium multiflorum); assay: Test A preemergence, visual plant response rating; conditions: for Ryegrass, Italian plant response rating: 125 g ai/ha, preemergence, 0 to 100 scale, 0 no effect, 100 complete control; for Ryegrass, Italian plant response rating (0 to 100 scale): 500 g ai/ha Preemergence, approx. 10 days
Procedure, shortened: (§1)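 Preemergence: seeds in loam/sand blend given directed soil spray of compound in non-phytotoxic solvent with surfactant. Postemergence: plants 2–10 cm, one- to two-leaf stage, sprayed with same formulation. Visual injury rated vs untreated controls after ~10 days in greenhouse, 0 (no effect) to 100 (complete control).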

[2] = test system: barnyardgrass (Echinochloa crus-galli); assay: Test A preemergence, visual plant response rating; conditions: for Barnyardgrass plant response rating: 125 g ai/ha, preemergence, 0 to 100 scale, 0 no effect, 100 complete control; for Barnyardgrass plant response rating (0 to 100 scale): 500 g ai/ha Preemergence, approx. 10 days
Procedure, shortened: as §1

[3] = test system: foxtail, giant (giant foxtail, Setaria faberii); assay: Test A preemergence, visual plant response rating; conditions: for Foxtail, Giant plant response rating: 125 g ai/ha, preemergence, 0 to 100 scale, 0 no effect, 100 complete control; for Foxtail, Giant plant response rating (0 to 100 scale): 500 g ai/ha Preemergence, approx. 10 days
Procedure, shortened: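 Ratings 0–100 (100 = complete control), visual, vs untreated controls at ~10 days. Application pre- or postemergence; solvent mixture with surfactant; loam/sand medium.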

kochia (Kochia scoparia) [4] = assay: Test A preemergence, visual plant response rating; conditions: for Kochia plant response rating: 125 g ai/ha, preemergence, 0 to 100 scale, 0 no effect, 100 complete control; for Kochia plant response rating (0 to 100 scale): 500 g ai/ha Preemergence, approx. 10 days
Procedure, shortened: as §1

[5] = test system: pigweed (Amaranthus retroflexus); assay: Test A preemergence, visual plant response rating; conditions: for Pigweed plant response rating: 125 g ai/ha, preemergence, 0 to 100 scale, 0 no effect, 100 complete control; for Pigweed plant response rating (0 to 100 scale): 500 g ai/ha Preemergence, approx. 10 days
Procedure, shortened: as §1

[6] = test system: ragweed (common ragweed, Ambrosia elatior); assay: Test A preemergence, visual plant response rating; conditions: for Ragweed plant response rating: 125 g ai/ha, preemergence, 0 to 100 scale, 0 no effect, 100 complete control; for Ragweed plant response rating (0 to 100 scale): 500 g ai/ha Preemergence, approx. 10 days
Procedure, shortened: as §1

[7] = test system: Italian ryegrass (Lolium multiflorum); assay: Test A postemergence, visual plant response rating; conditions: for Ryegrass, Italian plant response rating (0 to 100 scale): 500 g ai/ha, postemergence, 0 is no effect, 100 is complete control; for Ryegrass, Italian plant response rating: Postemergence, 125 g ai/ha, 0 to 100 scale (0 no effect, 100 complete control)
Procedure, shortened: as §1

[8] = test system: barnyardgrass (Echinochloa crus-galli); assay: Test A postemergence, visual plant response rating; conditions: for Barnyardgrass plant response rating (0 to 100 scale): 500 g ai/ha, postemergence, 0 is no effect, 100 is complete control; for Barnyardgrass plant response rating: Postemergence, 125 g ai/ha, 0 to 100 scale (0 no effect, 100 complete control)
Procedure, shortened: as §1

[9] = test system: blackgrass (Alopecurus myosuroides); assay: Test A postemergence, visual plant response rating; conditions: for Blackgrass plant response rating (0 to 100 scale): 500 g ai/ha, postemergence, 0 is no effect, 100 is complete control; for Blackgrass plant response rating: Postemergence, 125 g ai/ha, 0 to 100 scale (0 no effect, 100 complete control)
Procedure, shortened: as §1

corn (Zea mays) = assay: Test A postemergence, visual plant response rating; conditions: for Corn plant response rating (0 to 100 scale): 500 g ai/ha, postemergence, 0 is no effect, 100 is complete control; for Corn plant response rating: Postemergence, 125 g ai/ha, 0 to 100 scale (0 no effect, 100 complete control)
Procedure, shortened: as §1

[10] = test system: foxtail, giant (giant foxtail, Setaria faberii); assay: Test A postemergence, visual plant response rating; conditions: for Foxtail, Giant plant response rating (0 to 100 scale): 500 g ai/ha, postemergence, 0 is no effect, 100 is complete control; for Foxtail, Giant plant response rating: Postemergence, 125 g ai/ha, 0 to 100 scale (0 no effect, 100 complete control)
Procedure, shortened: as §1

[11] = test system: galium (catchweed bedstraw, Galium aparine); assay: Test A postemergence, visual plant response rating; conditions: for Galium plant response rating (0 to 100 scale): 500 g ai/ha, postemergence, 0 is no effect, 100 is complete control; for Galium plant response rating: Postemergence, 125 g ai/ha, 0 to 100 scale (0 no effect, 100 complete control)
Procedure, shortened: as §1

kochia (Kochia scoparia) [12] = assay: Test A postemergence, visual plant response rating; conditions: for Kochia plant response rating (0 to 100 scale): 500 g ai/ha, postemergence, 0 is no effect, 100 is complete control; for Kochia plant response rating: Postemergence, 125 g ai/ha, 0 to 100 scale (0 no effect, 100 complete control)
Procedure, shortened: as §1

[13] = test system: pigweed (Amaranthus retroflexus); assay: Test A postemergence, visual plant response rating; conditions: for Pigweed plant response rating (0 to 100 scale): 500 g ai/ha, postemergence, 0 is no effect, 100 is complete control; for Pigweed plant response rating: Postemergence, 125 g ai/ha, 0 to 100 scale (0 no effect, 100 complete control)
Procedure, shortened: as §1

[14] = test system: ragweed (common ragweed, Ambrosia elatior); assay: Test A postemergence, visual plant response rating; conditions: for Ragweed plant response rating (0 to 100 scale): 500 g ai/ha, postemergence, 0 is no effect, 100 is complete control; for Ragweed plant response rating: Postemergence, 125 g ai/ha, 0 to 100 scale (0 no effect, 100 complete control)
Procedure, shortened: as §1

[15] = test system: wheat (Triticum aestivum); assay: Test A postemergence, visual plant response rating; conditions: for Wheat plant response rating (0 to 100 scale): 500 g ai/ha, postemergence, 0 is no effect, 100 is complete control; for Wheat plant response rating: Postemergence, 125 g ai/ha, 0 to 100 scale (0 no effect, 100 complete control)
Procedure, shortened: as §1

[16] = test system: barnyardgrass (Echinochloa crus-galli); assay: Test B flooded paddy test, visual plant response rating; conditions: 250 g ai/ha, Flood, applied to paddy water, 2-leaf stage, evaluated after 13 to 15 days
Procedure, shortened: (§2)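 Rice, umbrella sedge, ducksalad and barnyardgrass grown to 2-leaf stage; pots flooded 3 cm above soil and compound applied directly to paddy water, depth maintained.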

[17] = test system: ducksalad (Heteranhera limosa); assay: as above; conditions: 250 g ai/ha, Flood, applied to paddy water, 2-leaf stage, evaluated after 13 to 15 days
Procedure, shortened: as §2

rice (Oryza sativa) = assay: as above; conditions: 250 g ai/ha, Flood, applied to paddy water, 2-leaf stage, evaluated after 13 to 15 days
Procedure, shortened: as §2

[18] = test system: sedge, umbrella (small-flower umbrella sedge, Cyperus difformis); assay: as above; conditions: 250 g ai/ha, Flood, applied to paddy water, 2-leaf stage, evaluated after 13 to 15 days
Procedure, shortened: as §2

| Compound | Ryegrass, Italian plant response rating [1] | Ryegrass, Italian plant response rating (0 to 100 scale) [1] | Barnyardgrass plant response rating [2] | Barnyardgrass plant response rating (0 to 100 scale) [2] | Foxtail, Giant plant response rating [3] | Foxtail, Giant plant response rating (0 to 100 scale) [3] | Kochia plant response rating (kochia (Kochia scoparia) [4]) | Kochia plant response rating (0 to 100 scale) (kochia (Kochia scoparia) [4]) | Pigweed plant response rating [5] | Pigweed plant response rating (0 to 100 scale) [5] | Ragweed plant response rating [6] | Ragweed plant response rating (0 to 100 scale) [6] | Ryegrass, Italian plant response rating (0 to 100 scale) [7] | Ryegrass, Italian plant response rating [7] | Barnyardgrass plant response rating (0 to 100 scale) [8] | Barnyardgrass plant response rating [8] | Blackgrass plant response rating (0 to 100 scale) [9] | Blackgrass plant response rating [9] | Corn plant response rating (0 to 100 scale) (corn (Zea mays)) | Corn plant response rating (corn (Zea mays)) | further results |
| --- | --- | --- | --- | --- | --- | --- | --- | --- | --- | --- | --- | --- | --- | --- | --- | --- | --- | --- | --- | --- | --- |
| CO/N=C(\c1ccsc1C)c1c(O)c(C)nn(C)c1=O [Compound 43] | 0 | 0 | 0 | 0 | 0 | 0 | 0 | 0 | 0 | 30 | 0 | 20 | 30 | 0 | 0 | 0 | 20 | 0 | 0 | 0 | Foxtail, Giant plant response rating (0 to 100 scale) [10]: 0; Foxtail, Giant plant response rating [10]: 0; Galium plant response rating (0 to 100 scale) [11]: 50; Galium plant response rating [11]: 20; Kochia plant response rating (0 to 100 scale) (kochia (Kochia scoparia) [12]): 20; Kochia plant response rating (kochia (Kochia scoparia) [12]): 0; Pigweed plant response rating (0 to 100 scale) [13]: 60; Pigweed plant response rating [13]: 20; Ragweed plant response rating (0 to 100 scale) [14]: 30; Ragweed plant response rating [14]: 20; Wheat plant response rating (0 to 100 scale) [15]: 0; Wheat plant response rating [15]: 0; Plant response rating, Barnyardgrass (0 to 100 scale, 0 is no effect, 100 is complete control) [16]: 0; Plant response rating, Ducksalad (0 to 100 scale, 0 is no effect, 100 is complete control) [17]: 0; Plant response rating, Rice (0 to 100 scale, 0 is no effect, 100 is complete control) (rice (Oryza sativa)): 0; Plant response rating, Sedge, Umbrella (0 to 100 scale, 0 is no effect, 100 is complete control) [18]: 0 |
| CO/N=C(\c1csc(C)c1)c1c(O)c(C)nn(C)c1=O [Compound 44] | 0 | 50 | 0 | 10 | 0 | 10 | 0 | 0 | 0 | 0 | 0 | 0 | 0 | 20 | 30 | 0 | 30 | 0 | 20 | 0 | Foxtail, Giant plant response rating (0 to 100 scale) [10]: 50; Foxtail, Giant plant response rating [10]: 0; Galium plant response rating (0 to 100 scale) [11]: 50; Galium plant response rating [11]: 20; Kochia plant response rating (0 to 100 scale) (kochia (Kochia scoparia) [12]): 0; Kochia plant response rating (kochia (Kochia scoparia) [12]): 0; Pigweed plant response rating (0 to 100 scale) [13]: 10; Pigweed plant response rating [13]: 10; Ragweed plant response rating (0 to 100 scale) [14]: 40; Ragweed plant response rating [14]: 0; Wheat plant response rating (0 to 100 scale) [15]: 0; Wheat plant response rating [15]: 0; Plant response rating, Barnyardgrass (0 to 100 scale, 0 is no effect, 100 is complete control) [16]: 0; Plant response rating, Ducksalad (0 to 100 scale, 0 is no effect, 100 is complete control) [17]: 0; Plant response rating, Rice (0 to 100 scale, 0 is no effect, 100 is complete control) (rice (Oryza sativa)): 0; Plant response rating, Sedge, Umbrella (0 to 100 scale, 0 is no effect, 100 is complete control) [18]: 0 |
| CON=C(c1c(OC(C)=O)c(C)nn(C)c1=O)c1cccc2ccccc12 [Compound 48] | 40 | 70 | 20 | 70 | 90 | 90 | 40 | 100 | 30 | 100 | 100 | 100 | 80 | 70 | 30 | 20 | 90 | 70 | 80 | 10 | Foxtail, Giant plant response rating (0 to 100 scale) [10]: 80; Foxtail, Giant plant response rating [10]: 30; Galium plant response rating (0 to 100 scale) [11]: 90; Galium plant response rating [11]: 80; Kochia plant response rating (0 to 100 scale) (kochia (Kochia scoparia) [12]): 80; Kochia plant response rating (kochia (Kochia scoparia) [12]): 70; Pigweed plant response rating (0 to 100 scale) [13]: 90; Pigweed plant response rating [13]: 80; Ragweed plant response rating (0 to 100 scale) [14]: 90; Ragweed plant response rating [14]: 80; Wheat plant response rating (0 to 100 scale) [15]: 10; Wheat plant response rating [15]: 0; Plant response rating, Barnyardgrass (0 to 100 scale, 0 is no effect, 100 is complete control) [16]: 0; Plant response rating, Ducksalad (0 to 100 scale, 0 is no effect, 100 is complete control) [17]: 0; Plant response rating, Rice (0 to 100 scale, 0 is no effect, 100 is complete control) (rice (Oryza sativa)): 0; Plant response rating, Sedge, Umbrella (0 to 100 scale, 0 is no effect, 100 is complete control) [18]: 0 |
